Experimental data: PubChem BioAssay AID1963838 (Molecular Pharmacology Branch, DTP, NCI, 2024)
“And” between values parts separate entries of the source, which are not always exact repeats. Identical values can stand only once.

System: 855422-203-R-J1-PDC complex spheroid viability
Experiment: Anticancer human tumor 855422-203-R-J1-PDC patient-derived bladder carcinoma cell line growth inhibition [POLQ]
Conditions: for viability, T/C: stronger effect = lower value; active means viability on the fitted dose curve at most 10% of control; inactive means the rest
Experimental: Multicellular complex tumor spheroid response to Polymerase (POL) inhibitors (novobiocin, ART-558, RP6685) in combination with a variety of drugs and investigational agents in selected tumor cell lines
The POL inhibitors (novobiocin, ART-558, and RP6685) were evaluated both individually and in combination with standard of care and investigational anticancer small molecules within a complex spheroid model of solid tumors. . Complex spheroids include a stromal component modeled by human endothelial cells (HUVEC) and fibroblasts modeled by human mesenchymal stem cells (MSCs). The concentration ranges selected for each drug and investigational agent were based upon clinically achievable concentrations if the clinical Cmax of the agent was known.
Compounds. The drugs and investigational agents: novobiocin (NSC847541), ART-558 (NSC835418), RP-6685 (NSC848927), peposertib (NSC802822), ceralasertib (NSC780249), elimusertib (NSC800525), camonsertib (NSC841442), AZD-1390 (NSC803789), olaparib (NSC753686), talazoparib (NSC767125), rucaparib (NSC756644), sotorasib (NSC818433), MRTX-1133 (NSC836407), SN-38 (NSC673596), topotecan (NSC609699), epotoside (NSC141540), doxorubicin (NSC123127), gemcitabine (NSC613327), 5-fluorouracil (NSC19893), paclitaxel (NSC125973), vemurafenib (NSC761431), MSA-2 (NSC828583), SN-011 (NSC837082), adavosertib (NSC754352), prexasertib (NSC758257), carboplatin (NSC241240) and oxaliplatin (NSC266046), were obtained from the National Cancer Institute (NCI) Developmental Therapeutics Program Chemical Repository (21). The FDA-approved anticancer drug set is available from the Developmental Therapeutics Program at https://dtp.cancer.gov/organization/dscb/obtaining/. […] The stock solutions were prepared in dimethyl sulfoxide (DMSO, Sigma-Aldrich, St. Louis, MO, cat. D2650), except for the platinum compounds which were prepared in saline (Quality Biological, Gaithersburg, MD, cat. 114-055-101), at 800-fold the tested concentration and stored at -70 degrees C prior to their use. All drugs and investigational agents were tested over a range starting from a high concentration at or near the clinical Cmax and decreasing in half-log increments. If the clinical Cmax for an agent had not been determined, the highest concentration tested was 10 microM, except for SN-38, which was tested at a high concentration of 1 microM.
Cell Culture. All cells were maintained in an incubator at 37 degrees C and 5% CO2 with 95% humidity. The PDC lines were cultured according to standard operating procedures established by the NCI PDMR (https://pdmr.cancer.gov). Table 3 of the manuscript, lists the cell lines along with the number of the three cell types plated to form the mct-spheroids and media for tumor cell growth. After thawing, all PDC lines, except 997537-175-T-J1-PDC and 415267-285-R-J2-PDC, were cultured in Matrigel-coated flasks prepared with a working solution of 1X Ham's F-12 nutrient mix, without supplementation (Thermo Fisher Scientific, cat. 11765054), 100 U/mL penicillin-streptomycin (Thermo Fisher Scientific, cat. 15140122), and 2.5% Matrigel (Corning Inc., Corning, NY, cat. 354248) for the first three passages. The two PDC lines 997537-175-T-J1-PDC and 415267-285-R-J2-PDC were cultured on uncoated flasks. The 857933-349-R-J2-PDC line was cultured in 6C/Colon 1B media containing advanced DMEM/F-12 (Thermo Fisher Scientific, cat. 12634028), 10 mM HEPES (Thermo Fisher Scientific, cat. 15630080), 1X GlutaMAX supplement (Thermo Fisher Scientific, cat. 35050061), 0.1 mg/mL primocin (InvivoGen, San Diego, CA, cat. ant-pm-2), 10% defined fetal bovine serum, heat inactivated (HyClone Laboratories Inc., Logan, UT, cat. SH30070.03HI), 50% L-WRN conditioned media (ATCC, cat. CRL-3276), 1.25 mM N-Acetyl-L-cysteine (Sigma-Aldrich, cat. A9165), 10 mM nicotinamide (Sigma-Aldrich, cat. N0636), 1X B-27 supplement (Thermo Fisher Scientific, cat. 17504044), 1X N-2 supplement (Thermo Fisher Scientific, cat. […]

[1] = curve of first compound, second compound 0.0316 µM
[2] = curve of first compound, second compound 0.1 µM
[3] = curve of first compound, second compound 0.316 µM
[4] = curve of first compound, second compound 1 µM
[5] = curve of first compound, second compound 3.16 µM
[6] = curve of first compound, second compound 10 µM
[7] = second compound 0.0316 µM, first compound 0.0316 µM
[8] = second compound 0.0316 µM, first compound 0.1 µM
[9] = second compound 0.0316 µM, first compound 0.316 µM
[10] = second compound 0.0316 µM, first compound 1 µM
[11] = second compound 0.0316 µM, first compound 3.16 µM
[12] = second compound 0.0316 µM, first compound 10 µM
[13] = second compound 0.1 µM, first compound 0.0316 µM
[14] = second compound 0.1 µM, first compound 0.1 µM
[15] = second compound 0.1 µM, first compound 0.316 µM
[16] = second compound 0.1 µM, first compound 1 µM
[17] = second compound 0.1 µM, first compound 3.16 µM
[18] = second compound 0.1 µM, first compound 10 µM
[19] = second compound 0.316 µM, first compound 0.0316 µM
[20] = second compound 0.316 µM, first compound 0.1 µM
[21] = second compound 0.316 µM, first compound 0.316 µM
[22] = second compound 0.316 µM, first compound 1 µM
[23] = second compound 0.316 µM, first compound 3.16 µM
[24] = second compound 0.316 µM, first compound 10 µM
[25] = second compound 1 µM, first compound 0.0316 µM
[26] = second compound 1 µM, first compound 0.1 µM
[27] = second compound 1 µM, first compound 0.316 µM
[28] = second compound 1 µM, first compound 1 µM
[29] = second compound 1 µM, first compound 3.16 µM
[30] = second compound 1 µM, first compound 10 µM
[31] = second compound 3.16 µM, first compound 0.0316 µM
[32] = second compound 3.16 µM, first compound 0.1 µM
[33] = second compound 3.16 µM, first compound 0.316 µM
[34] = second compound 3.16 µM, first compound 1 µM
[35] = second compound 3.16 µM, first compound 3.16 µM
[36] = second compound 3.16 µM, first compound 10 µM
[37] = second compound 10 µM, first compound 0.0316 µM
[38] = second compound 10 µM, first compound 0.1 µM
[39] = second compound 10 µM, first compound 0.316 µM
[40] = second compound 10 µM, first compound 1 µM
[41] = second compound 10 µM, first compound 3.16 µM
[42] = second compound 10 µM, first compound 10 µM
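Further: spheroids exposed to compounds for seven days before readout.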

O=C(Nc1ccc(O)c(NS(=O)(=O)c2ccc(F)cc2)c1)c1ccc(-c2ccccc2)cc1 + Nc1ccc(C#CCN(C(=O)Cc2ncc(C(F)(F)F)cc2C(F)(F)F)c2ccc(F)cc2)nn1
inactive: viability, T/C [7] 93.4% | viability, T/C [8] 119% | viability, T/C [9] 108% | viability, T/C [10] 88.1% | viability, T/C [11] 105% | viability, T/C [12] 77.5% | viability, T/C [13] 95.5% | viability, T/C [14] 105% | viability, T/C [15] 94.5% | viability, T/C [16] 103% | viability, T/C [17] 117% | viability, T/C [18] 63.8% | viability, T/C [19] 91.3% | viability, T/C [20] 114% | viability, T/C [21] 102% | viability, T/C [22] 99.2% | viability, T/C [23] 106% | viability, T/C [24] 77.4% | viability, T/C [25] 92.8% | viability, T/C [26] 92.8% | viability, T/C [27] 95.5% | viability, T/C [28] 95.2% | viability, T/C [29] 112% | viability, T/C [30] 73.6% | viability, T/C [31] 93.6% | viability, T/C [32] 94.2% | viability, T/C [33] 91.3% | viability, T/C [34] 96.3% | viability, T/C [35] 93.7% | viability, T/C [36] 62.2% | viability, T/C [37] 92% | viability, T/C [38] 90.1% | viability, T/C [39] 89.2% | viability, T/C [40] 88.7% | viability, T/C [41] 95.1% | viability, T/C [42] 51.5%
> 10 µM: IC50 [1] | IC50 [2] | IC50 [3] | IC50 [4] | IC50 [5] | IC50 [6]

C=CC(=O)N1CCN(c2nc(=O)n(-c3c(C)ccnc3C(C)C)c3nc(-c4c(O)cccc4F)c(F)cc23)C(C)C1 (stereo unspecified)
> 10 µM: IC50 (curve of compound)
inactive: viability, T/C (compound 0.0316 µM) 106% and 101% and 103% | viability, T/C (compound 0.1 µM) 89% and 126% and 115% | viability, T/C (compound 0.316 µM) 117% and 111% and 114% | viability, T/C (compound 1 µM) 101% and 130% and 102% | viability, T/C (compound 3.16 µM) 129% and 144% and 132% | viability, T/C (compound 10 µM) 127% and 135% and 113%

COc1cc(C2c3cc4c(cc3C(OC3OC5COC(C)OC5C(O)C3O)C3COC(=O)C23)OCO4)cc(OC)c1O (stereo unspecified) + Cc1cccc(N(C)C(=O)C2C(O)CCN2c2nc(C)cc(C(F)(F)F)c2C#N)c1
0.137 µM: IC50 [6]
0.18 µM: IC50 [5]
inactive: viability, T/C [7] 102% | viability, T/C [8] 102% | viability, T/C [9] 30.1% | viability, T/C [13] 98.4% | viability, T/C [14] 98.4% | viability, T/C [15] 28.7% | viability, T/C [19] 111% | viability, T/C [20] 89.8% | viability, T/C [21] 25.9% | viability, T/C [25] 113% | viability, T/C [26] 80.2% | viability, T/C [27] 24.8% | viability, T/C [31] 97.7% | viability, T/C [32] 77% | viability, T/C [33] 23.5% | viability, T/C [37] 97% | viability, T/C [38] 60.9% | viability, T/C [39] 20.7%
active: viability, T/C [10] 11.4% | viability, T/C [11] 7.61% | viability, T/C [12] 4.64% | viability, T/C [16] 12.5% | viability, T/C [17] 6.62% | viability, T/C [18] 4.51% | viability, T/C [22] 11.4% | viability, T/C [23] 8.46% | viability, T/C [24] 4.61% | viability, T/C [28] 11.8% | viability, T/C [29] 6.9% | viability, T/C [30] 5.16% | viability, T/C [34] 12.4% | viability, T/C [35] 6.67% | viability, T/C [36] 4.34% | viability, T/C [40] 13.5% | viability, T/C [41] 6.34% | viability, T/C [42] 4.46%
0.205 µM: IC50 [3]
0.229 µM: IC50 [1]
0.222 µM: IC50 [2]
0.189 µM: IC50 [4]
